Reference: US7838513B2, “Anti-cancer therapy comprising an H2-blocker, at least one antiinflammatory agent and a cytotoxic agent” (Tiltan Pharma Ltd., priority 2006, dated 2010)
“Also recorded” adds a separate entry of the source.

Assays:
tumor growth [1] = conditions: Example 4 of U.S. Patent Application 20030158118; cited from earlier work
[2] = tested on: mouse mammary carcinoma (EMT6/CTX); assay: Suppression of subcutaneous EMT6/CTX tumor growth in mice (tumor size); format: in vivo, mice of the CB6F1 strain; conditions: 28 days from tumor cell inoculation; i.p.; levamisole 12 mg/Kg, cimetidine 20 mg/Kg; vs control
Method: In the following exemplary embodiments of the present invention, different pharmaceutical compositions of the invention were tested in vivo for the purpose of suppression of tumor growth in mice. The control group received a vehicle containing only non-active ingredients which was compared to groups which received pharmaceutical compositions comprising different active ingredients as described in detail below. 3.5×10^5 cells of mouse mammary carcinoma (EMT6/CTX) were injected subcutaneously in to 7-8 week-old mice of the CB6F1 strain (a cross between Balbc and C57bl), in the center of their backs. The mice were then marked and divided into groups. Typically, each group consisted of 7 to 8 mice. The tumor size was measured twice a week and plotted in a graph. […] The width measurement was also used as an indication for tumor height, and the 0.52 is a normalizing factor. Mice were injected with a specified pharmaceutical composition, 6 days a week. Injection volume was 0.05 mL per 10 g body weight (25 g mice received 0.125 mL). All injections were performed intraperitoneally. The week was divided into two treatment types, cytotoxic treatment and non-cytotoxic treatment days according to the corresponding composition. […] 98% of final solution volume was measured and 2% solutol (liquid) was added. […] 98% of final solution volume was measured and 2% solutol (liquid) was added. […]

tumor growth [3] = conditions: Experiments 3 and 4 (FIGS. 3 and 4) in WO03/061566; cited from earlier work

| SMILES | Inhibition of tumor growth by Cimetidine by itself (tumor growth [1]) | Effect on tumor growth (tumor size), Example 2, FIG. 2 [2] | Effect of cyclophosphamide alone on tumor growth (tumor growth [3]) |
| --- | --- | --- | --- |
| CN/C(=N/CCSCc1nc[nH]c1C)NC#N [cimetidine] | did not inhibit tumor growth to any significant amount | neither levamisole (Group 2), nor cimetidine (Group 3), nor their combination (Group 4) had any significant effect on tumor growth; also recorded: did not result in any significant effect on tumor growth; also recorded: neither the H2-blocker (cimetidine) alone, nor levamisole alone demonstrated any significant anti-cancer activity | – |
| c1ccc([C@H]2CN3CCSC3=N2)cc1 [levamisole] | – | neither levamisole (Group 2), nor cimetidine (Group 3), nor their combination (Group 4) had any significant effect on tumor growth; also recorded: neither the H2-blocker (cimetidine) alone, nor levamisole alone demonstrated any significant anti-cancer activity | – |
| O=P1(N(CCCl)CCCl)NCCCO1 (stereo not shown) [cyclophosphamide] | – | – | very moderate effect |
